Test results reported in US7329664B2, “Substituted (7-pyridyl-4-phenylamino-quinazolin-2-yl)-methanol analogues” (Neurogen Corporation, priority 2003, dated 2008).

Experiments:
human capsaicin receptor [1] = target: T1, human capsaicin receptor (Homo sapiens, UniProt Q8NER1); test: Calcium mobilization assay, capsaicin receptor antagonist activity (Example 6); format: cell-based; settings: read-out: IC50 in standard assay of capsaicin receptor activity
T1 construct: transfected with the pBK-CMV expression construct encoding the full length human capsaicin receptor; expressed in transfected cells
T1 sequence (Q8NER1 whole entry): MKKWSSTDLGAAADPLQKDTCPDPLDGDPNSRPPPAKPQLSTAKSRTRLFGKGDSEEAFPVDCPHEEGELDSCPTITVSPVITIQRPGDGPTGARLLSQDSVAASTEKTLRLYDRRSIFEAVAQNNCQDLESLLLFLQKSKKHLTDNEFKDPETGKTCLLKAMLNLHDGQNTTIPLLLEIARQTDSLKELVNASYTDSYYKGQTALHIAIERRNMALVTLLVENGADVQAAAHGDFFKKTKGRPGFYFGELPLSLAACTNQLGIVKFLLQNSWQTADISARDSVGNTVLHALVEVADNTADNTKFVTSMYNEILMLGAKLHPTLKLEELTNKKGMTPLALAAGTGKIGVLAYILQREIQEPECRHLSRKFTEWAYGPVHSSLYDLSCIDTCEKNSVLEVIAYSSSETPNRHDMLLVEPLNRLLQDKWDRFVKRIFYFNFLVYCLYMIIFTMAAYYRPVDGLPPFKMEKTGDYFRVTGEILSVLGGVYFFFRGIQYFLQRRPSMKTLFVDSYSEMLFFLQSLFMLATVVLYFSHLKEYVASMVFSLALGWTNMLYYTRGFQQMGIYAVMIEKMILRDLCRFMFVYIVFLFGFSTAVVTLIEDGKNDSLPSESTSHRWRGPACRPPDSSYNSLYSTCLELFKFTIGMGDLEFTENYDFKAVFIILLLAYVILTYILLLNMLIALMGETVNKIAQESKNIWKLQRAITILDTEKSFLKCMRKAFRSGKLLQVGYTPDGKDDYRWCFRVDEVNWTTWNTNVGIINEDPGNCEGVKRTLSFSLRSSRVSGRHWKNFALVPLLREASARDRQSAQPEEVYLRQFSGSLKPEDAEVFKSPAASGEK
Protocol: Human embryonic kidney (HEK293) cells were transfected with the pBK-CMV expression construct encoding the full length human capsaicin receptor using standard methods. The transfected cells were selected for two weeks in media containing G418 (400 μg/ml) to obtain a pool of stably transfected cells. Independent clones were isolated from this pool by limiting dilution to obtain clonal stable cell lines for use in subsequent experiments.
This Example illustrates representative calcium mobilization assays for use in evaluating test compounds for agonist and antagonist activity.
Cells transfected with expression plasmids (as described in Example 4) and thereby expressing human capsaicin receptor are seeded and grown to 70-90% confluency in FALCON black-walled, clear-bottomed 96-well plates (#3904, BECTON-DICKINSON, Franklin Lakes, N.J.). The culture medium is emptied from the 96 well plates and FLUO-3 AM calcium sensitive dye (Molecular Probes, Eugene, Oreg.) is added to each well (dye solution: 1 mg FLUO-3 AM, 440 μL DMSO and 440 μl 20% pluronic acid in DMSO, diluted 1:250 in Krebs-Ringer HEPES (KRH) buffer (25 mM HEPES, 5 mM KCl, 0.96 mM NaH2PO4, 1 mM MgSO4, 2 mM CaCl2, 5 mM glucose, 1 mM probenecid, pH 7.4), 50 μl diluted solution per well). […] After the incubation, the dye is emptied from the plates, and the cells are washed once with KRH buffer, and resuspended in KRH buffer.
(§1) To measure the ability of a test compound to agonize or antagonize a calcium mobilization response in cells expressing capsaicin receptors to capsaicin or other vanilloid agonist, the EC50 of the agonist capsaicin is first determined. An additional 20 μl of KRH buffer and 1 μl DMSO is added to each well of cells, prepared as described above. 100 μl capsaicin in KRH buffer is automatically transferred by the FLIPR instrument to each well. Capsaicin-induced calcium mobilization is monitored using either FLUOROSKAN ASCENT (Labsystems; Franklin, Mass.) or FLIPR (fluorometric imaging plate reader system; Molecular Devices, Sunnyvale, Calif.) instruments. […] In this equation, y is the maximum fluorescence signal, x is the concentration of the agonist or antagonist (in this case, capsaicin), a is the Emax, b corresponds to the EC50 value and c is the Hill coefficient. […]
Test compounds are dissolved in DMSO, diluted in 20 μl KRH buffer so that the final concentration of test compounds in the assay well is between 1 μM and 5 μM, and added to cells prepared as described above. […] Just prior to determining the fluorescence response, 100 μl capsaicin in KRH buffer at twice the EC50 concentration determined as described above is automatically added by the FLIPR instrument to each well of the 96 well plate for a final sample volume of 200 μl and a final capsaicin concentration equal to the EC50. […]

human capsaicin receptor [2] = target: T1, human capsaicin receptor; test: Calcium mobilization assay, agonist response to capsaicin (Example 6); format: cell-based; settings: cells expressing human capsaicin receptor, positive control; read-out: approximate EC90 concentration
Protocol: Cells transfected with expression plasmids (as described in Example 4) and thereby expressing human capsaicin receptor are seeded and grown to 70-90% confluency in FALCON black-walled, clear-bottomed 96-well plates (#3904, BECTON-DICKINSON, Franklin Lakes, N.J.). The culture medium is emptied from the 96 well plates and FLUO-3 AM calcium sensitive dye (Molecular Probes, Eugene, Oreg.) is added to each well (dye solution: 1 mg FLUO-3 AM, 440 μL DMSO and 440 μl 20% pluronic acid in DMSO, diluted 1:250 in Krebs-Ringer HEPES (KRH) buffer (25 mM HEPES, 5 mM KCl, 0.96 mM NaH2PO4, 1 mM MgSO4, 2 mM CaCl2, 5 mM glucose, 1 mM probenecid, pH 7.4), 50 μl diluted solution per well). […]
as §1, with “An additional 20 μl of KRH buffer and 1 μl DMSO is added to each well of cells, prepared as described above. 100 μl capsaicin in KRH buffer is automatically transferred by the FLIPR instrument to each well.” left out

Structure (SMILES)	IC50 (human capsaicin receptor [1])	EC90 (human capsaicin receptor [2])
CC(C)COCc1nc(Nc2ccc(C(F)(F)F)cn2)c2ccc(-c3ncccc3C(F)(F)F)nc2n1 [Compound 132, [2-lsobutoxymethyl-7-(3-trifluoromethyl-pyridin-2-yl)-pyrido[2,3-d]pyrimidin-4-yl]-(5-trifluoromethyl-pyridin-2-yl)-amine]	< 0.01 µM	–
COCc1nc(Nc2ccc(C(F)(F)F)cc2)c2ccc(-c3ncccc3Cl)nc2n1 [Compound 2, [7-(3-Chloro-pyridin-2-yl)-2-methoxymethyl-pyrido[2,3-d]pyrimidin-4-yl]-(4-trifluoromethyl-phenyl)-amine]	< 0.01 µM	–

Other lines, results leading:

IC50 (human capsaicin receptor [1])	EC90 (human capsaicin receptor [2])	Structure (SMILES)
< 0.01 µM	–	COCc1nc(Nc2ccc(C(F)(F)F)cc2)c2ccc(-c3ncccc3C)cc2n1 [Compound 3, [2-Methoxymethyl-7-(3-methylpyridin-2-yl)-quinazolin-4-yl)-(4-trifluoromethylphenyl)-amine]
< 0.01 µM	–	COCc1nc(Nc2ccc(C(F)(F)F)cn2)c2ccc(-c3ncccc3C(F)(F)F)nc2n1 [Compound 133, [2-Methoxymethyl-7-(3-trifluoromethyl-pyridin-2-yl)-pyrido[2,3-d]pyrimidin-4-yl]-(5-trifluoromethy1-pyridin-2-yl)-amine]
–	~0.1 µM	COc1cc(CNC(=O)CCCC/C=C/C(C)C)ccc1O [capsaicin]
